Measured values taken from ChEMBL document CHEMBL1131262, “Comprehensive study on structure-activity relationships of rifamycins: discussion of molecular and crystal structure and spectroscopic and thermochemical properties of rifamycin O” (J Med Chem, 1998).
In brackets after ≈: the same amount, converted by molar mass. Activity calls are given as the source filed them. No cut-off for these calls is given here.

Legend:
Nucleic Acid [1] = experiment: Inhibitory concentration against DNA dependent RNA polymerase in E. coli; Non active; format: nucleic-acid assay, Escherichia coli
Escherichia coli [2] = experiment: The compound is evaluated for inhibitory concentration against Escherichia coli and is expressed as minimum inhibitory concentration (MIC); Non active; format: functional, organism-based
Escherichia coli [3] = experiment: The compound is evaluated for inhibitory concentration against Escherichia coli and is expressed as minimum inhibitory concentration (MIC).; format: functional
Nucleic Acid [4] = experiment: Inhibitory concentration against DNA dependent RNA polymerase in Escherichia coli; format: nucleic-acid assay
Escherichia coli [5] = experiment: The compound is evaluated for inhibitory concentration against Escherichia coli and is expressed as minimum inhibitory concentration (MIC); active; format: functional, organism-based
[6] = Escherichia coli, read-out: MIC

Structure (SMILES) | IC50 (Nucleic Acid [1]) | MIC (Escherichia coli [2]) | IC50 (Nucleic Acid [4]) [nM/unit] | other results
COc1c(C)c2c3c4c(O)cc5c(c14)OC(N5)/C(C)=C\C=C\C(C)C(O)C(C)C(O)C(C)C(OC(C)=O)C(C)C(OC)/C=C/OC(C)(O2)C3=O (configuration not stated) | Not Active | inactive |  | 
COC1/C=C/OC2(C)Oc3c(C)c(O)c4c(c3C2=O)C2(C=C(NC(=O)/C(C)=C\C=C\C(C)C(O)C(C)C(O)C(C)C(OC(C)=O)C1C)C4=O)OCC(=O)O2 (configuration not stated) |  |  |  | MIC (Escherichia coli [3]; [6]): 75 µg/mL (≈ 99.5 µM)
CCN(CC)c1nc2c(s1)c1c(O)c3c(O)c(C)c4c(c32)C(=O)[C@@](C)(O/C=C/[C@H](OC)[C@@H](C)[C@@H](OC(C)=O)[C@H](C)[C@H](O)[C@H](C)[C@@H](O)[C@@H](C)/C=C/C=C(/C)C(=O)N1)O4 [RIFAMEXIL] |  |  |  | MIC (Escherichia coli [3]; [6]): 32 µg/mL (≈ 39.5 µM)
COC1/C=C/OC2(C)Oc3c(C)c(O)c4c(c3C2O)C(=O)C=C(NC(=O)/C(C)=C\C=C\C(C)C(O)C(C)C(O)C(C)C(OC(C)=O)C1C)C4=O (configuration not stated) |  |  | 50 | 
CO[C@H]1/C=C/O[C@@]2(C)Oc3c(C)c(O)c4c(O)c(cc(O)c4c3C2=O)NC(=O)/C(C)=C\C=C\[C@H](C)[C@H](O)[C@@H](C)[C@@H](O)[C@@H](C)[C@H](OC(C)=O)[C@@H]1C (stereo in doubt; form 1) [RIFAMYCIN] |  |  | 15 | MIC (Escherichia coli [3]): 3 µg/mL (≈ 4.3 µM)
CO[C@H]1/C=C/O[C@@]2(C)Oc3c(C)c(O)c4c(O)c(c(/C=N/N5CCN(C)CC5)c(O)c4c3C2=O)NC(=O)/C(C)=C\C=C\[C@H](C)[C@H](O)[C@@H](C)[C@@H](O)[C@@H](C)[C@H](OC(C)=O)[C@@H]1C [RIFAMPIN] |  |  |  | MIC (Escherichia coli [3]; [6]): 20 µg/mL (≈ 24.3 µM)
COC1/C=C/OC2(C)Oc3c(C)c(O)c4c(c3C2=O)-c2[n-]c3ccc(Br)c[n+]3c2/C(=N/C(=O)/C(C)=C\C=C\C(C)C(O)C(C)C(O)C(C)C(OC(C)=O)C1C)C4=O (configuration not stated) |  |  |  | MIC (Escherichia coli [5]): Active
COC1=N\C2=CC(=O)c3c(c(O)c(C)c4c3C(=O)C(C)(O/C=C/C(OC)C(C)C(OC(C)=O)C(C)C(O)C(C)C(O)C(C)/C=C/C=C\1C)O4)C2=O (configuration not stated) | Not Active |  |  | 
COC1=N/C2=CC(=O)c3c(c(O)c(C)c4c3C(=O)C(C)(O/C=C/C(OC)C(C)C(OC(C)=O)C(C)C(O)C(C)C(O)C(C)\C=C/C=C\1C)O4)C2=O (configuration not stated) |  | inactive |  | 
COC1/C=C/OC2(C)Oc3c(C)c(O)c4c(c3C2O)C(=O)C=C(NC(=O)/C(C)=C\C=C\C(C)C(OC(C)=O)C(C)C(O)C(C)C(OC(C)=O)C1C)C4=O (configuration not stated) | Not Active | inactive |  | 
COC1/C=C/OC2(C)Oc3c(C)c(O)c4c(c3C2=O)C(=O)C=C(NC(=O)/C(C)=C\C(=O)C2CC2C(O)C(C)C(O)C(C)C(OC(C)=O)C1C)C4=O (configuration not stated) [TOLYPOMYCINONE] | Not Active | inactive |  | 

Now from value to compound, other results behind:

IC50 (Nucleic Acid [1]) | MIC (Escherichia coli [2]) | IC50 (Nucleic Acid [4]) [nM/unit] | Structure (SMILES) | other results
Not Active | inactive |  | COC1/C=C/OC2(C)Oc3c(C)c(O)c4c(c3C2O)C(=O)C=C(NC(=O)/C(C)=C\C=C\C(C)C2OC(C)(C)OC(C(C)C(O)C1C)C2C)C4=O (configuration not stated) | 
Not Active | inactive |  | COC1/C=C/OC2(C)Oc3c(C)c(O)c4c(O)c(cc(OCC(=O)Nc5ccc(I)cc5)c4c3C2=O)NC(=O)/C(C)=C\C=C\C(C)(O)C(=O)C(C)C(O)C(C)C(OC(C)=O)C1C (configuration not stated) | 
Not Active | inactive |  | COC1/C=C/C2OC3(C)C4c5c(c(C)c(O)c6c5C(=O)C=C(NC(=O)/C(C)=C\C=C\C(C)C5OC(C)(C)OC(C(C)C(O)C1C)C5C)C6=O)OC43O2 (configuration not stated) | 
 |  | 1600 | COC1/C=C/OC2(C)Oc3c(C)c(O)c4c(c3C2=O)C(=O)C=C(NC(=O)C(C)CCCC(C)C(O)C(C)C(O)C(C)C(OC(C)=O)C1C)C4=O (configuration not stated) | 
 |  | 85 | CO[C@H]1/C=C/O[C@@]2(C)Oc3c(C)c(O)c4c(O)c(cc(O)c4c3C2=O)NC(=O)/C(C)=C\C=C\[C@H](C)[C@H](O)[C@@H](C)[C@@H](O)[C@@H](C)[C@H](OC(C)=O)[C@@H]1C (stereo in doubt; form 2) [RIFAMYCIN] | MIC (Escherichia coli [3]): 25 µg/mL (≈ 35.8 µM)
 |  | 50 | COC1/C=C/OC2(C)Oc3c(C)c(O)c4c(c3C2=O)C(=O)C=C(NC(=O)/C(C)=C\C=C\C(C)C(O)C(C)C(O)C(C)C(OC(C)=O)C1C)C4=O (configuration not stated) | MIC (Escherichia coli [3]; [6]): 12 µg/mL (≈ 17.2 µM)
 |  | 20 | COC(=O)C1=C2NC(=O)/C(C)=C\C=C\C(C)C(O)C(C)C(O)C(C)C(OC(C)=O)C(C)C(OC)/C=C/OC3(C)Oc4c(C)c(O)c(c(c4C3=O)C1=O)C2=O (configuration not stated) | 
